From publication PMC9062151, “GVS-12 attenuates non-alcoholic steatohepatitis by suppressing inflammatory responses via PPARγ/STAT3 signaling pathways” (RSC Advances, 2019)

Molecular target: T1, PPARγ (peroxisome proliferator-activated receptor γ) (Homo sapiens, UniProt P37231)
T1 construct: gene PPARG; PPARγ-LBD
T1 sequence (P37231 235-505 limits assumed): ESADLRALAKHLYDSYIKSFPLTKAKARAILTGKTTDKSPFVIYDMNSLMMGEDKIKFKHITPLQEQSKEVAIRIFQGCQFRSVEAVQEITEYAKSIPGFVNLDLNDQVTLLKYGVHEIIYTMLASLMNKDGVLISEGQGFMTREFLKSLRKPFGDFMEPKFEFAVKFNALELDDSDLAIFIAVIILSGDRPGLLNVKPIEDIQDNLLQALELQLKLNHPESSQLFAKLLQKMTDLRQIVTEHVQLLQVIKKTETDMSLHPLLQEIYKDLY
Assay: LanthaScreen TR-FRET PPARγ competitive binding assay; supported by PPARγ reporter gene activation in HepG2 cells

`O=C(NCc1ccco1)c1ccc(OCc2ccc(C(F)(F)F)cc2)cc1` [GVS-12] was tested, and the Ki was 320 nM.
